The values below come from ChEMBL document CHEMBL1201862, “PubChem BioAssay data set” (2004).

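The compound was tested at five concentrations on cells cultured in 96-well plates, with a 48-hour exposure period. GI50 marks 50% less growth.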 The source made the active and inactive calls. Rule as the data show it: active = GI50 up to about 1.1 µM and inactive = higher. Residues, ends and D or L forms follow the SMILES beside them. *: point of attachment. Boc = CC(C)(C)OC(=O)*; OBn = c1ccc(CO*)cc1 Bounds are passed on as bounds.

Test systems include A549; HCC 2998; HOP-92; Hs-578T; K562; LOX IMVI; MDA-N; MOLT-4; NCI-H460; NCI-H522; OVCAR-4; OVCAR-8; PC-3; SF-539; SK-MEL-5; SK-OV-3; SN12C; SNB-19; SR.
Common to all, as to assay: NCI-60 cell line screen, 48 h

`CC[P+](C#Cc1ccccc1)(c1ccccc1)c1ccccc1`: the GI50 was 3.08 µM (inactive) with A549; 1.97 µM (inactive) in the experiment with HCC 2998; 1.92 µM (inactive) with HOP-92; 2.86 µM (inactive) in the experiment on Hs-578T; 0.224 µM (active) in the experiment on K562; 1.82 µM (inactive) with LOX IMVI. Also, the GI50 in the experiment with MDA-N is 1.56 µM (inactive); in the experiment with MOLT-4, 1.36 µM (inactive); with NCI-H460, 3 µM (inactive); in the experiment on NCI-H522, 1.36 µM (inactive); in the experiment on OVCAR-4, 3.15 µM (inactive); with OVCAR-8 it was 1.76 µM (inactive). The GI50 is 2.3 µM (inactive) with PC-3; 1.79 µM (inactive) with SF-539; 1.22 µM (inactive) in the experiment on SK-MEL-5; 2.93 µM (inactive) with SK-OV-3; 1.75 µM (inactive) in the experiment on SN12C; 5.92 µM (inactive) in the experiment on SNB-19. Moreover, the GI50 in the experiment with SR is 2.33 µM (inactive).
Turning to `CCc1c[n+]2c(cc1C1=CN3c4ccccc4[C@]45CCN6C/C(=C/CO)[C@H](C[C@H]64)[C@@H]([C@@H]1O)[C@H]35)-c1[nH]c3ccccc3c1CC2`, the GI50 in the experiment with A549, in the experiment on HCC 2998, with HOP-92, in the experiment on Hs-578T, in the experiment on K562 and in the experiment on LOX IMVI was > 50 µM (inactive) each time. For the same molecule, the GI50 in the experiment on MDA-N, with MOLT-4, with NCI-H460, in the experiment with NCI-H522, in the experiment with OVCAR-4 and with OVCAR-8 was > 50 µM (inactive) in each case. Besides, the GI50 in the experiment on PC-3, in the experiment on SF-539, in the experiment with SK-MEL-5, in the experiment with SK-OV-3, in the experiment with SN12C and with SNB-19 was > 50 µM (inactive) throughout. The GI50 with SR was > 50 µM (inactive).
`O=C(NO)c1ccc(OCc2cccc(Cl)c2)cc1`: the GI50 in the experiment on A549 is 8.18 µM (inactive); in the experiment with HCC 2998, 5.87 µM (inactive); in the experiment on HOP-92, 11.9 µM (inactive); with Hs-578T, 16.2 µM (inactive); in the experiment with K562, 7.96 µM (inactive); in the experiment on LOX IMVI, 5.07 µM (inactive). The GI50 is 10.1 µM (inactive) in the experiment on MDA-N; 2.62 µM (inactive) in the experiment on MOLT-4; 4.58 µM (inactive) in the experiment with NCI-H460; 3.27 µM (inactive) in the experiment on NCI-H522; 8.95 µM (inactive) with OVCAR-4; 3.01 µM (inactive) in the experiment on OVCAR-8. Moreover, the GI50 in the experiment on PC-3 is 6.64 µM (inactive); in the experiment on SF-539, 8.11 µM (inactive); in the experiment on SK-MEL-5 it was 12.4 µM (inactive); in the experiment with SK-OV-3, 8.45 µM (inactive); in the experiment with SN12C, 8.89 µM (inactive); in the experiment on SNB-19, 24.5 µM (inactive). Further, the GI50 in the experiment with SR was 2.16 µM (inactive).
As for `COc1c(C)c(OC)c(C(=O)CC(C)C)c(OC)c1C`, the GI50 in the experiment on A549 is > 100 µM (inactive); in the experiment on HCC 2998 it was > 100 µM (inactive); in the experiment with HOP-92, > 100 µM (inactive); in the experiment with Hs-578T, > 100 µM (inactive); in the experiment with LOX IMVI, 62.7 µM (inactive); in the experiment on MDA-N, > 100 µM (inactive). In addition, the GI50 was 43.7 µM (inactive) with MOLT-4; > 100 µM (inactive) in the experiment with NCI-H522; 23.6 µM (inactive) in the experiment with OVCAR-4; > 100 µM (inactive) in the experiment on OVCAR-8; 52.4 µM (inactive) in the experiment on PC-3; > 100 µM (inactive) in the experiment on SF-539. Further, the GI50 with SK-MEL-5 is 40.3 µM (inactive); in the experiment on SK-OV-3, > 100 µM (inactive); in the experiment on SN12C, > 100 µM (inactive); with SNB-19, 24.9 µM (inactive); with SR, 21.4 µM (inactive).
Consider `CCOC(CBr)OC1C(=O)OCC1(C)C` (centres undefined), for which the GI50 with A549, in the experiment with HCC 2998, in the experiment on HOP-92, with Hs-578T, in the experiment on K562 and in the experiment on LOX IMVI was > 100 µM (inactive) in each case. For the same molecule, the GI50 with MDA-N, with MOLT-4, in the experiment on NCI-H460, with NCI-H522, in the experiment with OVCAR-4 and in the experiment on OVCAR-8 was > 100 µM (inactive) each time. Further, the GI50 in the experiment on PC-3, in the experiment with SK-MEL-5, with SK-OV-3, in the experiment on SN12C, in the experiment on SNB-19 and in the experiment with SR was > 100 µM (inactive) in each case.
As for `CC(C)(C)OC(=O)NC(Cc1ccc(OCc2ccccc2)cn1)C(=O)O` (centres undefined), the GI50 in the experiment on A549, with HCC 2998, with HOP-92, in the experiment on Hs-578T, with K562 and in the experiment on LOX IMVI was > 100 µM (inactive) throughout. Moreover, the GI50 is > 100 µM (inactive) in the experiment on MDA-N; > 100 µM (inactive) in the experiment with NCI-H460; 67 µM (inactive) in the experiment on NCI-H522; > 100 µM (inactive) in the experiment on OVCAR-4; > 100 µM (inactive) in the experiment on OVCAR-8; > 100 µM (inactive) in the experiment with PC-3. Besides, the GI50 in the experiment on SF-539, in the experiment with SK-MEL-5, with SN12C, with SNB-19 and in the experiment on SR was > 100 µM (inactive) in each case.
For the molecule `CC(C)CC(NC(=O)OC(C)(C)C)C(=O)NC(CC(=O)OCc1ccccc1)C(=O)OCc1ccccc1` (stereo not drawn) (Boc-Leu-Asp(OBn)-OBn; configuration not given here), the GI50 is > 100 µM (inactive) in the experiment on A549; 20.9 µM (inactive) in the experiment on HCC 2998; 30.6 µM (inactive) in the experiment with HOP-92; > 100 µM (inactive) in the experiment on Hs-578T; 33.5 µM (inactive) in the experiment with K562; 22.8 µM (inactive) in the experiment with LOX IMVI. Also, the GI50 with MDA-N was 42.2 µM (inactive); with MOLT-4 it was 31 µM (inactive); in the experiment on NCI-H460, 30.8 µM (inactive); in the experiment on NCI-H522, 27.9 µM (inactive); in the experiment on OVCAR-8, > 100 µM (inactive); in the experiment with PC-3, 29.4 µM (inactive). Further, the GI50 with SF-539 was 31 µM (inactive); in the experiment with SK-MEL-5, 24.7 µM (inactive); in the experiment on SK-OV-3 it was > 100 µM (inactive); in the experiment with SN12C it was 22.4 µM (inactive); with SNB-19, 29.4 µM (inactive); in the experiment with SR, 25.8 µM (inactive).
For `Cn1ccc(C(=O)N2CCSC2=S)c(OCc2ccccc2)c1=O`, the GI50 with A549 was > 100 µM (inactive); with HCC 2998, > 100 µM (inactive); in the experiment with HOP-92, 79.1 µM (inactive); with Hs-578T, > 100 µM (inactive); in the experiment with K562, > 100 µM (inactive); with LOX IMVI, > 100 µM (inactive). Also, the GI50 in the experiment on MDA-N is > 100 µM (inactive); in the experiment with NCI-H460 it was > 100 µM (inactive); in the experiment with NCI-H522, 39.2 µM (inactive); with OVCAR-4, > 100 µM (inactive); in the experiment with OVCAR-8, > 100 µM (inactive); in the experiment on PC-3, > 100 µM (inactive). Also, the GI50 was > 100 µM (inactive) in the experiment with SK-MEL-5, > 100 µM (inactive) in the experiment with SN12C, > 100 µM (inactive) with SNB-19 and 26.7 µM (inactive) with SR.
Regarding `CCOc1cc2c(cc1O)C(N)C[C@@H]1[C@@H]2CC[C@]2(C)[C@@H](O)CC[C@@H]12` (some centres undefined), the GI50 with HCC 2998 was 36.7 µM (inactive); in the experiment with HOP-92, 25.6 µM (inactive); in the experiment with Hs-578T, 54.7 µM (inactive); in the experiment on K562 it was 18.8 µM (inactive); with LOX IMVI it was 34.2 µM (inactive); in the experiment on MDA-N, 23.4 µM (inactive). For the same molecule, the GI50 in the experiment with MOLT-4 was 33.3 µM (inactive); with NCI-H460, 37.6 µM (inactive); with NCI-H522 it was 33.5 µM (inactive); with OVCAR-4, 30.8 µM (inactive); in the experiment on OVCAR-8, 83.2 µM (inactive); in the experiment on PC-3, 34.4 µM (inactive). Moreover, the GI50 in the experiment on SF-539 was > 10 µM (inactive); in the experiment with SK-MEL-5 it was 30.2 µM (inactive); in the experiment on SNB-19, 46.7 µM (inactive); in the experiment on SR, 15.2 µM (inactive).
Take `CC(=O)O[C@H]1C(=O)[C@@]2(C)[C@H]([C@H](OC(=O)c3ccc([N+](=O)[O-])cc3)[C@]3(O)C[C@H](OC(=O)[C@H](O)[C@@H](NC(=O)c4ccccc4)c4ccccc4)C(C)=C1C3(C)C)[C@]1(OC(C)=O)CO[C@@H]1C[C@@H]2O`: the GI50 with A549 is > 25 µM (inactive); in the experiment on HCC 2998 it was > 25 µM (inactive); with HOP-92, > 25 µM (inactive); in the experiment with Hs-578T, > 25 µM (inactive); in the experiment on K562, > 25 µM (inactive); in the experiment on MDA-N, 16.8 µM (inactive). In addition, the GI50 in the experiment with MOLT-4, with NCI-H460, in the experiment with NCI-H522, in the experiment with OVCAR-4, in the experiment with OVCAR-8 and in the experiment on PC-3 was > 25 µM (inactive) each time. Also, the GI50 with SF-539, in the experiment on SK-MEL-5, in the experiment with SK-OV-3, in the experiment with SN12C, with SNB-19 and in the experiment on SR was > 25 µM (inactive) each time.
On to `O=C(CCc1ccc(O)c(O)c1)NCCc1cc(O)cc(OCc2ccccc2)c1`, for which the GI50 with A549 is 52.6 µM (inactive); in the experiment on HCC 2998, 17.1 µM (inactive); with HOP-92, 36.5 µM (inactive); in the experiment on Hs-578T it was 45.9 µM (inactive); with K562, 37 µM (inactive); in the experiment with LOX IMVI, 26.3 µM (inactive). Further, the GI50 in the experiment on MDA-N was 19.5 µM (inactive); in the experiment with MOLT-4, 14 µM (inactive); in the experiment with NCI-H460, 22.2 µM (inactive); with NCI-H522, 5.14 µM (inactive); with PC-3, 31.9 µM (inactive); in the experiment with SF-539 it was 27.2 µM (inactive). In addition, the GI50 in the experiment with SK-MEL-5 was 13.5 µM (inactive); in the experiment on SK-OV-3, 28.7 µM (inactive); with SN12C it was 24.9 µM (inactive); with SNB-19, 6.22 µM (inactive); with SR, 21.1 µM (inactive).
